Measurements reported in patent publication US20230218629A1, “THERAPEUTIC COMPOSITIONS AND METHODS FOR PREVENTION AND TREATMENT OF DIASTOLIC DYSFUNCTION” (AMBETEX PTY LTD, priority 2019, published 2023).

Legend:
Type in all cases: in vivo
obese mice (HFD) = assay: Verubecestat-High fat diet (HFD) treatment study
Method: Verubecestat-High fat diet (HFD) treatment study: At 12 weeks of age, mice (n=30) were placed on a HFD with 43% of calories from fat (23.5% by weight; SF04-001 High Fat Rodent Diet Based on D12451, Specialty Feeds, Glen Forrest, Wash.). After 13 weeks of the diet period, echocardiography was performed on all mice to obtain pre-drug treatment measures of cardiac function. Mice were allocated to treatment groups so that measures of cardiac function and morphology were matched as best as possible. Verubecestat (MedChemExpress) was resuspended in 100% DMSO before being diluted in a hydroxypropyl cellulose solution to give a final solution containing 6.25 mg/mL Verubecestat in 10% hydroxypropyl cellulose and 5% DMSO. A vehicle solution containing 10% hydroxypropyl cellulose and 5% DMSO was also made. Aliquots of both drug and vehicle were stored at −80° C. until required. The HFD/Verubecestat group was administered 25 mg/kg of Verubecestat per day by oral gavage, while the HFD/control group received an equivalent volume of vehicle. Echocardiography was then performed following 4 weeks of the treatment period to obtain post-drug treatment measures of cardiac function. Following 5 weeks of the drug administration, mice were humanely killed via cervical dislocation and blood was immediately obtained via cardiac puncture and stored in a heparinised tube. The heart, epididymal fat pad, mesenteric fat pad, liver, quadricep, hind limb and brain were then immediately dissected. The heart was blotted prior to being weighed and all tissues were snap frozen in liquid nitrogen and stored at −80° C. Plasma Aβ species were measured using high sensitivity ELISA kits (Wako Diagnostics) and plasma that was diluted 1:10 with assay buffer.

Male C57BL6 mice [1] = assay: Aβ40 administration study
Method: Aβ40 administration study: Lyophilised recombinant Aβ40 (Millipore) and scrambled control peptide (ScrAβ40; Millipore) were resuspended in 1% NH4OH and aliquoted at 200 ng/ml in H2O and stored at −80° C. for no longer than 4 weeks. Male C57BL6 mice were obtained from the Animal Resource Centre (Perth, Wash.) at 4 weeks of age and housed with 4 mice per cage on a 12 hr light/dark cycle at a temperature of 22° C. and a constant humidity with a normal rodent diet. At 12 weeks of age, mice were grouped according to body mass and composition, determined by EchoMRI. Mice were then administered 1 μg of recombinant Aβ40 or ScrAβ40 (n=12/group per cohort) by i.p. injection once/day for 5 wks. After 4 weeks of peptide administration, cardiac function was assessed by echocardiography as follows. Mice were anaesthetised with inhalation of 1.5% isoflurane anaesthesia and echocardiography was performed using the Phillips HD15 diagnostic ultrasound system with a 15 MHz linear-array transducer by an experienced veterinarian. The velocity of blood flow through the mitral valve was analysed using Doppler mode imaging. […] Doppler imaging was also utilised to measure the velocity of blood flow through the aortic valve. The measurements were then used to calculate the ejection time, peak aortic flow and heart rate. M-mode imaging of the left ventricle was used to measure the thickness of the inter-ventricular septum (IVS), left ventricular internal diameter (LVID) and left ventricular posterior wall (LVPW) in both diastole (d) and end-systole (s) as well as systolic measures such as ejection fraction and fractional shortening. An estimation of LV mass was calculated from the m-mode imaging by using the formula (1.05[LVIDd+LVPWd+IVSd]^3−[LVIDd]^3) by Troy et al. (1972). Mice were humanely killed by cervical dislocation 1 week later. Blood was obtained immediately following by cardiac puncture and the heart, and other tissues were immediately removed. Hearts were washed in ice cold PBS and weighed prior to being snap frozen in liquid nitrogen. Plasma Aβ40 was measured using a high sensitivity ELISA kit (Wako Diagnostics) and plasma that was diluted 1:10 with assay buffer.

Male C57BL6 mice [2] = assay: Aβ42 administration study: GTT with glucose tracers, cardiac metabolism
Method: At 12 weeks of age, mice were grouped according to body mass and composition, determined by EchoMRI. […] An i.p. glucose tolerance test (GTT) was performed on the final treatment day following an overnight fast. Mice were administered 2 g/kg lean mass of glucose including radioactive glucose tracers, prepared as follows. 100 μl of 1 μCi/μl glucose analogue, [^3H]-2-deoxyglucose (2-DOG), and 500 μl of 200 μCi/mL U-^14C glucose were evaporated to dryness before redissolving the radioactive tracers in 1 mL of 50% glucose. This produced a 50% glucose solution containing 100 μCi/mL [^3H]-2-DOG and 100 μCi/mL U-^14C glucose. The tail tip of each mouse was cut off and the blood glucose concentration of a blood sample was measured using an AccuCheck II glucometer (Roche). The GTT was initiated via intraperitoneal injection of the radiolabelled glucose solution (2 g/kg body weight, 10 uCi/animal) into the overnight-fasted mice. Further blood samples were taken at 15, 30, 45, 60 and 90 minutes after the injection for the measurement of blood glucose. Blood samples (30 μl) were also taken from the tail tip at each time point and diluted in 100 μl of saline. These samples were then centrifuged and the supernatant collected. 50 μl of the supernatant was diluted in 500 μl of distilled water and then suspended in 4 mL of Ultima Gold XR scintillation fluid (Packard Bioscience). Blood radioactivity was determined at each time point by performing liquid scintillation counting on each solution using the Beckman scintillation counter (LS6000 SC). At the conclusion of the GTT, mice were killed via cervical dislocation. Blood was obtained immediately following by cardiac puncture and the heart, and other tissues were immediately removed. Hearts were washed in ice cold PBS and weighed prior to being snap frozen in liquid nitrogen. The heart (30 mg), epididymal fat pad (30 mg and quadriceps skeletal muscle (30 mg) were homogenised in 1.5 ml of distilled water. The homogenate was centrifuged at 3000 rpm for 10 min at 4° C. 400 μl of the supernatant was diluted into 1.6 mL of distilled water and then suspended in 14 mL of Ultima Gold XR scintillation fluid (Packard Bioscience). The radioactivity of each sample (from both [3H]-2-DOG6P and [^3H]-2-DOG) was determined by liquid scintillation counting using the Beckman scintillation counter (LS6000 SC). The ^3H radioactivity was used to measure glucose uptake into each tissue.
To determine the incorporation of U-^14C glucose into triglyceride and the total triglyceride content in the heart, an extraction of triglyceride was carried out using a chloroform/methanol mixture. Samples of heart (30 mg) were hand-homogenised in 2 mL of chloroform/methanol (2:1) and the homogeniser rinsed in a further 2 mL of chloroform/methanol (2:1), and the washings being added to the original extract in 10 mL tubes. The tubes were tightly capped and mixed on a rotator overnight to maximise extraction of the triglycerides. 2 ml of 0.6% saline was then added, to facilitate the separation of the organic and aqueous phases, after which the tubes were mixed thoroughly and then centrifuged at 2000 rpm for 10 minutes. […] The amount of U-^14C glucose clearance into the lipid fraction was measured by suspending 100 μl of the triglyceride solution in 5 mL of Ultima Gold XR scintillation fluid (Packard Bioscience), followed by scintillation counting using the Beckman scintillation counter (LS6000 SC).

Male C57BL6 mice [3] = assay: Aβ42 administration study: cardiac function by echocardiography
Method: After 4 weeks of peptide administration, cardiac function was assessed by echocardiography as follows. Mice were anaesthetised with inhalation of 1.5% isoflurane anaesthesia and echocardiography was performed using the Phillips HD15 diagnostic ultrasound system with a 15 MHz linear-array transducer by an experienced veterinarian. The velocity of blood flow through the mitral valve was analysed using Doppler mode imaging. […] Doppler imaging was also utilised to measure the velocity of blood flow through the aortic valve. The measurements were then used to calculate the ejection time, peak aortic flow and heart rate. M-mode imaging of the left ventricle was used to measure the thickness of the inter-ventricular septum (IVS), left ventricular internal diameter (LVID) and left ventricular posterior wall (LVPW) in both diastole (d) and end-systole (s) as well as systolic measures such as ejection fraction and fractional shortening. An estimation of LV mass was calculated from the m-mode imaging by using the formula (1.05[LVIDd+LVPWd+IVSd]^3−[LVIDd]^3) by Troy et al. (1972). Mice were humanely killed by cervical dislocation 1 week later. Blood was obtained immediately following by cardiac puncture and the heart, and other tissues were immediately removed. Hearts were washed in ice cold PBS and weighed prior to being snap frozen in liquid nitrogen.

Molecule: CN1C(N)=N[C@](C)(c2cc(NC(=O)c3ccc(F)cn3)ccc2F)CS1(=O)=O [Verubecestat, verubecestat]
- plasma Aβ40 (obese mice (HFD); 25 mg/kg per day oral gavage, obese mice, FIG. 7A): decreased
- plasma Aβ42 (obese mice (HFD); 25 mg/kg per day oral gavage, obese mice, FIG. 7B): decreased
- DT after treatment, of baseline levels (obese mice (HFD); 4 weeks of daily treatment, 25 mg/kg oral, vehicle group 122%, FIG. 7C): 107%

Molecule: Aβ40: Lyophilised recombinant Aβ40 (Millipore), amyloid beta peptide
- plasma Aβ40 (Male C57BL6 mice [1]; 1 μg/day i.p., 5 weeks, vs ScrAβ40, FIG. 6A): significantly increased
- E:A ratio (Male C57BL6 mice [1]; FIG. 6B): did not have any effect
- DT (Male C57BL6 mice [1]; FIG. 6C): did not have any effect
- ejection fraction (Male C57BL6 mice [1]; FIG. 6E): nor any effect
- IVSd (Male C57BL6 mice [1]; FIG. 6F): no effect
- LVIDd (Male C57BL6 mice [1]; FIG. 6G): no effect
- LV mass (Male C57BL6 mice [1]; FIG. 6H): no effect

Molecule: Aβ42: Lyophilised recombinant Aβ42 (Millipore), amyloid beta peptide of 42 amino acids
- increase in plasma Aβ42 compared with administration of ScrAβ42 (Male C57BL6 mice [2]; 1 μg/day i.p., five weeks, FIG. 1A): approximately 3 fold
- cardiac gene expression (inflammation, endoplasmic reticulum stress) (Male C57BL6 mice [2]; FIG. 1E): gene expression changes indicative of cardiac stress responses
- whole body glucose tolerance or plasma insulin throughout the GTT (Male C57BL6 mice [2]; after five weeks of peptide administration, vs ScrAβ42): no difference
- glucose incorporation into TAG (14C-glucose labelling) (Male C57BL6 mice [2]; heart, FIG. 1C): greater
- total TAG (Male C57BL6 mice [2]; heart, FIG. 1D): increased
- internal dimensions of the left ventricle (LVIDd) (Male C57BL6 mice [3]; FIG. 2B): no effect
- deceleration time (Male C57BL6 mice [3]; FIG. 2D): increased
- fractional shortening (Male C57BL6 mice [3]; FIG. 2F): reduced
- ejection fraction (Male C57BL6 mice [3]; FIG. 2G): reduced
- E normalised by isovolumetric relaxation time (IVRT) (Male C57BL6 mice [3]; between groups, FIG. 2E): no significant difference
- gross heart weight (Male C57BL6 mice [3]; five weeks Aβ42 vs ScrAβ42, FIG. 2A): no effect
